In one assay the test system is YAP-TEAD. The experiment in a line: YAP-TEAD inhibitor activity by Nano luciferase method (8xGTiiC-nLuc reporter in 293T cells). The class given is cell-based. The conditions noted are these: Homo sapiens, HEK-293T, 48 hours incubation, read-out: Nano-luciferase detection (IC50). The text has this: EXAMPLE 2: YAP-TEAD INHIBITOR ACTIVITY WAS DETECTED BY NANO LUCIFERASE METHOD
(1) Experimental materials and equipments: 293T cells were purchased from NANJING COBIOER BIOSCIENCES CO., LTD. DMEM medium (High sugar, no phenol red, Bio-Channel), DMSO (dimethyl sulfoxide), Lipo6000™ transfection reagent (Beyotime), pGL3B-8xGTiiC-nLuc-CMV-fLuc plasmid, 0.25% EDTA-Tripsin (trypsin digest), 1×PBS (phosphate buffer, PH7.2), 96-well white cell culture plate (PerkinElmer), fetal bovine serum (FBS), 10,000 U/mL penicillin-G/streptomycin, high-speed freezing centrifuge (EPPENDORF 5810R), 37° C. CO2 incubator, Vi-cell® Cell Counter, Envision Microplate Reader (PerkinElmer).
The revived 293T cells were inoculated into a 10 cm culture dish and placed in an incubator with 5% CO2, and cultured at constant temperature of 37° C. To ensure transfection efficiency, cells at logarithmic phase (cell density of approximately 50%-70%) should be used.
On the day before transfection, cells at the logarithmic phase were digested with Trypsin-EDTA, and culture medium was added to terminate digestion. The cell suspension was prepared by blowing and mixing using a pipette.
Cell concentration was measured using Vi-cell, and the cell suspension was diluted to a suspension of 5*10^^5 cells per milliliter. After preparing the cell suspension, the suspension was gently mixed. 10 ml of liquid was added to a 10 cm culture dish. In this way, the number of cells in each 10 cm culture dish was 5*10^^6. The cells were incubated at a constant temperature of 37° C. for 1 day in an incubator with 5% CO2.
Two clean and sterile centrifuge tubes were taken and added with 750 μL opti-MEM Medium without antibiotics and serum, respectively. Then one tube was added with 15 μg Plasmid (pGL3B-8xGTiiC-nLuc-CMV-fLuc), and gently blew and mixed well using a pipette; the other tube was added with Lipo6000 transfection reagent, and gently blew and mixed using a pipette. After standing at room temperature for 5 minutes, the culture solution containing DNA was added gently to the culture solution containing Lipo6000 transfection reagent, and mixed well by gently inverting the centrifuge tube, then standing at room temperature for 5 minutes.
The above mixture was added evenly to a 10 cm culture dish and replaced with fresh complete culture medium after 6 hours of cultivation.
After transfection for 1 day, cells were digested with Trypsin EDTA, and culture medium was added to terminate the digestion. The cell suspension was prepared by blowing and mixing using a pipette.
Cell concentration was measured using Vi-cell, and the cell suspension was diluted to a suspension of 20000 cells per milliliter.
After preparing the cell suspension, the suspension was gently mixed, and added to 96-well plate with 100 μL per well. Thus, the density of the cells to be tested is 2000 cells per well.
The inoculated cell culture plate was placed in the incubator for cultivation, and after about 24 hour, compounds with concentration gradient were added.
10 mM compound stock solution was diluted with culture medium to 50 μM. Compound solution of 50 μM was added to the third column of the deep well plate, 216 μL of culture medium containing 0.5% DMSO was added to the fourth to eleventh columns, successively.
Gradient dilution: taking 100 μL of solution from the third column and adding the solution to the fourth column and mixing well; then taking 100 µL of solution from the fourth column again and adding the solution to the fifth column, repeating this operation until the eleventh column.
Taking 25 μL of compound solution from the deep well plate and adding it to a 96-well culture plate using a multi-channel pipette. Repeating four times on the 96 well plate for each compound. Finally, a concentration gradient of 1:3.16 was formed in the 96-well plate with a maximum concentration of 10,000 nM. The • (5) Addition of Nano Luciferase Detection Reagent and Read […]

The subject of assay [1] is human pleural mesothelioma cells NCI-H226. Description: Cell anti-proliferation experiment (CCK8), NCI-H226. The class given is cell-based. An excerpt:
TEST EXAMPLE 1 CELL ANTI-PROLIFERATION EXPERIMENT
Determination of proliferation inhibition of YAP-TEAD inhibitor compounds on human pleural mesothelioma cells NCI-H226
Experimental materials and equipments: Human pleural mesothelioma cells NCI-H226 was purchased from NANJING COBIOER BIOSCIENCES CO., LTD. RPMI-1640 medium (Bio-Channel), DMSO (dimethyl sulfoxide), CCK8 (WST-8) Cell Assay Kit (Beyotime), 0.25% EDTA-Tripsin (trypsin digest), 1×PBS (phosphate buffer, PH7.2), 96-well plate (Corning), fetal bovine serum (FBS), 10,000 U/mL penicillin-G/streptomycin, high-speed freezing centrifuge (EPPENDORF 5810R), enzyme-linked immunosorbent assay (Tecan Spark).
1. Cell plating • A) Tumor cells were cultured to 80-90% density in RPMI-1640 (containing 10% FBS and 100 U/mL penicillin-G/streptomycin) under the condition of 37° C., 5% CO2 and saturated humidity. • B) The culture medium was removed from the 10 cm culture dish. • C) Cells were washed with 10 ml 1×PBS. • D) 4 ml of 0.25% EDTA-Tripsin was added to digest pancreatin for 5 minutes in an incubator at 37° C. and 5% CO2. Then the mixture was transferred to a 15 ml centrifuge tube, and centrifuged for 5 minutes at 200 g. The supernatant was discarded to obtain cell precipitation. • E) The cell precipitation was resuspended with 4 ml of […], counted and adjusted to 10,000 cells/ml. • F) The cell suspension was added to a 96-well plate with a volume of 100 μL per well and cultured overnight in an incubator at 37° C. and 5% CO2.
• Compound dilution • A) Preparation of gradient dilution solutions of the tested compounds: the tested compounds was configured to 1 mM stock solution. Then […] of stock solution was dissolved in 1.5 ml of DMSO-free culture solution, and then 3-fold continuous gradient dilution with 0.1% DMSO culture solution was performed to get a total of 9 concentrations. The diluted concentrations of the compound were as follows: 333.33 nM, 111.11 nM, 37.03 nM, 12.35 nM, 4.15 nM, 1.37 nM, 0.46 nM, 0.15 nM • B) After full mixing, 100 μL of culture compound solution was taken to replace the culture solution in the cell culture plate, with 4 duplicated wells at each concentration; • C) The cells were transferred to the incubator to incubate for 3 days.
• A) the cell culture plate was taken out and added with 10 μl of CCK-8 (WST-8) solution per well in the biosafety cabinet; • B) The cell culture plate was put back into the incubator and continued to incubate for 3 hours; • C) 450 nm wavelength was selected to measure absorbance value on TECAN enzyme linked immunosorbent assay detector.
The following formula was used to calculate the cell viability (% Cell Viability); • Cell Viability (%)=[A(Drug-added)-A(Blank)]/[A(0 Drug-added)-A(blank)][…] • A (Drug-added): The absorbance of wells containing cells, CCK8 solution, and drug solution. • A (Blank): The absorbance of wells containing culture medium and CCK8 solution, but without cells. • A (0 Drug-added): The absorbance of wells containing cells, CCK8 solution, but without drug solution. • Cell viability: Cell proliferation viability or cytotoxicity viability was determined by the IC50 value obtained by curve fitting using GraphPad Prism 8 software.

The structures appear in SMILES notation. pIC50: −log10 of the molar value.

Take `O=C(O)c1ccc2c(ccc(=O)n2-c2ccc(C(F)(F)F)cc2)c1` [Example T-1]: the pIC50 (in the assay with YAP-TEAD; in assay [1]) was 5.30 to 6.00 in each case. On to `CC(C)NC(=O)c1ccc2c(ccc(=O)n2-c2ccc(C(F)(F)F)cc2)c1` [Example T-3], for which the pIC50 (with YAP-TEAD; in assay [1]) was not below 6.00 in each case. As to `O=C(O)c1ccc2c(c1)c(=O)ccn2-c1ccc(C(F)(F)F)cc1` [Example T-5], the results for the negative logarithm of the IC50 (pIC50) (in the assay with YAP-TEAD; in assay [1]) were not below 6.00 and 5.30 to 6.00, respectively. The like results for `CC(C)NC(=O)c1ccc2c(c1)c(=O)ccn2-c1ccc(C(F)(F)F)cc1` [Example T-6] were, in that order, not below 6.00 and not below 6.00.

As for `CNS(=O)(=O)c1ccc2c(c1)-c1ncn(C)c1CN2c1ccc(C(F)(F)F)cc1` [Example T-7], the pIC50 (with YAP-TEAD; in assay [1]) was not below 6.00 throughout. For the compound `CNS(=O)(=O)c1ccc2c(c1)c1ncn(C)c1c(=O)n2-c1ccc(C(F)(F)F)cc1` [Example T-15], the pIC50 (in the assay with YAP-TEAD; in assay [1]) was not below 6.00 throughout. With `COC[C@H](C)NC(=O)c1ccc2c(c1)-c1ncn(C)c1CN2c1ccc(C(F)(F)F)cc1` [Example T-16], the negative logarithm of the IC50 (pIC50) (with YAP-TEAD; in assay [1]) was not below 6.00 in each case. Regarding `C[C@H](NC(=O)c1ccc2c(c1)c(=O)ccn2-c1ccc(C(F)(F)F)cc1)c1ccccn1` [Example T-17], the pIC50 – broadly, the negative decadic logarithm of the IC50, by convention in mol/L – in the assay on YAP-TEAD was not below 6.00; in assay [1], 5.30 to 6.00. On to `CNS(=O)(=O)c1ccc2c(c1)-c1nn(C)cc1CN2c1ccc(C(F)(F)F)cc1` [Example T-18], for which the pIC50 (in the assay on YAP-TEAD; in assay [1]) was not below 6.00 each time.

With `CNS(=O)(=O)c1ccc2c(c1)-c1cn(C)nc1CN2c1ccc(C(F)(F)F)cc1` [Example T-19], the pIC50 (in the assay with YAP-TEAD; in assay [1]) was not below 6.00 in each case. With `CNS(=O)(=O)c1ccc2c(c1)c1ncn(CCOC)c1c(=O)n2-c1ccc(C(F)(F)F)cc1` [Example T-20], the negative-log IC50 (pIC50) (in the assay on YAP-TEAD; in assay [1]) was not below 6.00 each time. Turning to `N#CC1CN(C(=O)c2ccc3c(ccc(=O)n3-c3ccc(C(F)(F)F)cc3)c2)C1` [Example T-21], the pIC50 (with YAP-TEAD; in assay [1]) was 5.30 to 6.00 each time. For `O=C(c1ccc2c(ccc(=O)n2-c2ccc(C(F)(F)F)cc2)c1)N1CC(O)C1` [Example T-22], the pIC50 (in the assay with YAP-TEAD; in assay [1]) was 5.30 to 6.00 throughout.

`C[C@@H](NC(=O)c1ccc2c(ccc(=O)n2-c2ccc(C(F)(F)F)cc2)c1)c1ccccn1` [Example T-24]: the pIC50 (in the assay with YAP-TEAD; in assay [1]) was 5.30 to 6.00 throughout. As for `CNS(=O)(=O)c1ccc2c(c1)c1nn(C)cc1c(=O)n2-c1ccc(C(F)(F)F)cc1` [Example T-31], the negative logarithm of the IC50 (pIC50) (in the assay on YAP-TEAD; in assay [1]) was not below 6.00 each time.

For the compound `CNS(=O)(=O)c1ccc2c(c1)c1nc[nH]c1c(=O)n2-c1ccc(C(F)(F)F)cc1` [Example T-33], the negative-log IC50 (pIC50) (in the assay on YAP-TEAD; in assay [1]) was not below 6.00 throughout.

Take `C[C@@H](NC(=O)c1ccc2c(c1)c(=O)ccn2-c1ccc(C(F)(F)F)cc1)c1ccccn1` [Example T-34]: the results for the pIC50 (in the assay on YAP-TEAD; in assay [1]) were not below 6.00 and 5.30 to 6.00, respectively. The like results for `COC[C@H](C)NC(=O)c1ccc2c(c1)c(=O)ccn2-c1ccc(C(F)(F)F)cc1` [Example T-35] were, in that order, not below 6.00 and 5.30 to 6.00. Taken in the same sequence, the figures for `N#CC1CN(C(=O)c2ccc3c(c2)c(=O)ccn3-c2ccc(C(F)(F)F)cc2)C1` [Example T-38] were 5.30 to 6.00 and 5.30 to 6.00. The like results for `CNS(=O)(=O)c1ccc2c(c1)-c1ncn(CCOC)c1CN2c1ccc(C(F)(F)F)cc1` [Example T-39] were, in that order, not below 6.00 and not below 6.00. In the case of `CNS(=O)(=O)c1ccc2c(c1)c1cn(CCOC)nc1c(=O)n2-c1ccc(C(F)(F)F)cc1` [Example T-45], the negative logarithm of the IC50 (pIC50) (in the assay with YAP-TEAD; in assay [1]) was not below 6.00 each time.

`CNS(=O)(=O)c1ccc2c(c1)c1ncn(CCO)c1c(=O)n2-c1ccc(C(F)(F)F)cc1` [Example T-46]: the pIC50 (with YAP-TEAD; in assay [1]) was not below 6.00 each time. With `CN[S+]([O-])c1ccc2c(c1)c1ncn(CCOC)c1c(=O)n2-c1ccc(C(F)(F)F)cc1` (stereo not drawn) [Example T-47], the pIC50 (in the assay with YAP-TEAD; in assay [1]) was not below 6.00 throughout. `CNS(=O)(=O)c1ccc2c(c1)c1ncn(C)c1c(=O)n2Cc1ccc(C(F)(F)F)cc1` [Example T-48]: the negative-log IC50 (pIC50) (with YAP-TEAD; in assay [1]) was not below 6.00 in each case.

Compound `Cn1cc2c(=O)n(-c3ccc(C(F)(F)F)cc3)c3ccc(C(=O)N4CC(O)C4)cc3c2n1` [Example T-103] had a pIC50 in assay [1] of 5.30 to 6.00.

Turning to `Cn1cc2c(=O)n(-c3ccc(C(F)(F)F)cc3)c3ccc(C(=O)N4CC(C#N)C4)cc3c2n1` [Example T-104], the negative logarithm of the IC50 (pIC50) in assay [1] was 5.30 to 6.00. Still for that read-out and setting: then `C[C@@H](NC(=O)c1ccc2c(c1)c1nn(C)cc1c(=O)n2-c1ccc(C(F)(F)F)cc1)c1ccccn1` [Example T-106], with 5.30 to 6.00; and `CN(C)C(=O)c1ccc2c(c1)c1nn(C)cc1c(=O)n2-c1ccc(C(F)(F)F)cc1` [Example T-112], with 5.30 to 6.00.

For the compound `COC[C@@H](C)NC(=O)c1ccc2c(c1)c1nn(C)cc1c(=O)n2-c1ccc(C(F)(F)F)cc1` [Example T-119], the pIC50 in assay [1] is 5.30 to 6.00. The same measure, in the same setting: then `C[C@H](NC(=O)c1ccc2c(c1)c1nn(C)cc1c(=O)n2-c1ccc(C(F)(F)F)cc1)c1ccncc1` [Example T-147], with 5.30 to 6.00.

For the origin of these results see US20250154105A1, “POLYCYCLIC COMPOUND AND USE THEREOF” (TYK MEDICINES, INC., priority 2021, published 2025).
